Data: article PMC9488896, “Hydroxamic Acid-Modified Peptide Library Provides Insights into the Molecular Basis for the Substrate Selectivity of HDAC Corepressor Complexes” (ACS Chemical Biology, 2022)
Like-named read-outs stand apart in the source and are kept apart here. Residues, ends and D or L forms follow the SMILES beside them.

What was measured:
[1] = target: T1, MiDAC complex (Homo sapiens, UniProt Q13547+Q6PJG2+Q9H147); assay: Boc-Lys HDAC inhibition assay; format: biochemical; conditions: HDAC complexes tables; 50 nM complex, 100 μM Boc-(Ac)Lys-AMC, 37 °C 30 min; technical replicates N = 2
T1 construct: made in house; host or cells: HEK293F
Description: (§1) Finally, we directed our attention toward assessing how the results from the experiments with HMR would be common to the other known class I HDAC corepressor complexes. RERE, MIER1, CoREST, HMR, MiDAC, Sin3A, and SMRT were expressed and purified, and the concentrations were normalized based on the concentration of HDAC1 or HDAC3 (Figure 4A). We determined the potency of H3(23–29)K27Hd 12 and H4(12–18)K16Hd 16 against RERE, MIER1, CoREST, NuRD, MiDAC, Sin3A, and SMRT (Figure 4B). In addition, we repeated the H3(23–29)K27Hd alanine scan experiment for each of these complexes to assess whether or not the importance of Lys23 for maintaining potency against HMR was replicated across the other complexes (Figure 4C).
(§2) Inhibition assays with various peptide inhibitors were performed using a fluorescence-based assay. The inhibitor peptides were initially dissolved in 5% dimethyl sulfoxide (DMSO) at a stock concentration of 25 mM before being further diluted in the HDAC assay buffer (50 mM Tris/HCl, pH 7.5, 150 mM NaCl). Serial dilutions (1:3) of the inhibitor were prepared, starting at a concentration of 500 μM. HDAC complexes were diluted to a final concentration of 50 nM and incubated with the inhibitor for 20 min at rt. The Boc-(Ac)Lys-AMC substrate was added at a final concentration of 100 μM The final volume of the reaction was 50 μL. The reaction was incubated at 37 °C, 150 rpm, for 30 min, before a developer (50 mM Tris, pH 7.5, 100 mM NaCl, 10 mg/mL trypsin) was added. The reaction was incubated with the developer for 10 min before being measured (PerkinElmer, 2030 multilabel reader, VICTOR X5, excitation 335 nm, emission 460 nm). The absorbance of the buffer as the blank control was subtracted from the HDAC activity, and IC50 calculations were performed using the nonlinear regression log(inhibitor) vs response equation Y = bottom + (top – bottom)/(1+10^(X–Log IC50)) in Graphpad Prism 9.

[2] = target: T2, Sin3A complex (Homo sapiens, UniProt Q13547); assay: Boc-Lys HDAC inhibition assay; format: biochemical; conditions: HDAC complexes tables; 50 nM complex, 100 μM Boc-(Ac)Lys-AMC, 37 °C 30 min; technical replicates N = 2
T2 construct: made in house; host or cells: HEK293F
Description: as §1, §2

[3] = target: T3, RERE complex (Homo sapiens, UniProt Q13547+Q9P2R6); assay: Boc-Lys HDAC inhibition assay; format: biochemical; conditions: HDAC complexes tables; 50 nM complex, 100 μM Boc-(Ac)Lys-AMC, 37 °C 30 min; technical replicates N = 2
T3 construct: made in house; host or cells: HEK293F
Description: as §1, §2

[4] = target: T4, MIER1 complex (Homo sapiens, UniProt Q13547+Q8N108); assay: Boc-Lys HDAC inhibition assay; format: biochemical; conditions: HDAC complexes tables; 50 nM complex, 100 μM Boc-(Ac)Lys-AMC, 37 °C 30 min; technical replicates N = 2
T4 construct: made in house; host or cells: HEK293F
Description: as §1, §2

[5] = target: T5, SMRT complex (HDAC3) (Homo sapiens, UniProt O15379); assay: Boc-Lys HDAC inhibition assay; format: biochemical; conditions: HDAC complexes tables; 50 nM complex, 100 μM Boc-(Ac)Lys-AMC, 37 °C 30 min; technical replicates N = 2
T5 construct: made in house; host or cells: HEK293F
Description: as §1, §2

[6] = target: T6, HMR complex (Homo sapiens, UniProt Q09028+Q13330+Q13547); assay: Fluorescence polarization binding assay; conditions: 10 nM FTU-labeled peptide, increasing HMR, 30 min rt; one-site binding fit; technical replicates N = 2; read-out: KD of Fluorescein-labelled peptides against HMR
T6 construct: made in house; host or cells: HEK293F
Experimental: We aimed first to validate the results of the activity assay with the hydroxamic acid-containing peptides in terms of binding kinetics. To this end, we designed and synthesized fluorescein-labeled analogues (FTU) of the key peptides identified from the inhibition assay: FTU-H3(6−12)K9Hd 17, FTU-H3(23–29)K27Hd 18, FTU-H4(8−14)K12Hd 19, and FTU-H4(12−18)K16Hd 20. […] These peptides were then tested in an FP assay to measure their binding affinity for the HMR complex (Figure 2D).
The fluorescence polarization assay was performed using 96-well black plates (Corning). FTU (10 nM)-labeled peptides (peptides 17–20) were incubated with increasing concentrations of HMR for 30 min at rt. The plate was shaken before being read on a Victor X5 Plate reader (Perkin Elmer). […] values were calculated using the nonlinear regression one-site binding equation Y = Bmax × X/(KD + X) using Graphpad Prism 9.

[7] = target: T7, HDAC1/MTA1(aa: 162–546)/RBBP4 core NuRD complex (HMR) (Homo sapiens, UniProt Q09028+Q13330+Q13547); assay: Boc-Lys HDAC inhibition assay; format: biochemical; conditions: 50 nM complex, 100 μM Boc-(Ac)Lys-AMC, 37 °C 30 min, technical replicates N = 2
T7 construct: made in house; host or cells: HEK293F
Experimental: as §2

[8] = target: T8, CoREST complex (Homo sapiens, UniProt Q13547+Q9UKL0); assay: Boc-Lys HDAC inhibition assay; format: biochemical; conditions: HDAC complexes tables; 50 nM complex, 100 μM Boc-(Ac)Lys-AMC, 37 °C 30 min; technical replicates N = 2
T8 construct: made in house; host or cells: HEK293F
Description: as §1, §2

[9] = alanine scan / H4K12Hd experiments, 20 min preincubation rt, read-out: IC50 of HMR against H3 K27Hd, H4 K16Hd and H4K12Hd peptides

T7 sequence (Q13547 whole entry, species assumed): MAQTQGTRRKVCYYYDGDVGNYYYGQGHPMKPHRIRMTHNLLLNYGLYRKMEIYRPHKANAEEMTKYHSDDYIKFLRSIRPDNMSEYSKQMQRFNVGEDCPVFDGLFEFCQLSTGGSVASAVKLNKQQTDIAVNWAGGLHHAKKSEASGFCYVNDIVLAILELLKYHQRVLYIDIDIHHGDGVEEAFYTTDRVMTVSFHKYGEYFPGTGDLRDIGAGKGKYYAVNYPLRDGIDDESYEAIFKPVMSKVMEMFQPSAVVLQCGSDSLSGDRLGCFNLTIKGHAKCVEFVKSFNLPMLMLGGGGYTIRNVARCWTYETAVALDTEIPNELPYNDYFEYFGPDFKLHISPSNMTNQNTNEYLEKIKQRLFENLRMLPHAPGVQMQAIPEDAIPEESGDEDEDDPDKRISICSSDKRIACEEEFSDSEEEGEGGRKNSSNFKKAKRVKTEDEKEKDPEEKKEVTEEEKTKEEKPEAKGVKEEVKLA
T7 sequence (Q13330 162-546 partner limits assumed, species assumed): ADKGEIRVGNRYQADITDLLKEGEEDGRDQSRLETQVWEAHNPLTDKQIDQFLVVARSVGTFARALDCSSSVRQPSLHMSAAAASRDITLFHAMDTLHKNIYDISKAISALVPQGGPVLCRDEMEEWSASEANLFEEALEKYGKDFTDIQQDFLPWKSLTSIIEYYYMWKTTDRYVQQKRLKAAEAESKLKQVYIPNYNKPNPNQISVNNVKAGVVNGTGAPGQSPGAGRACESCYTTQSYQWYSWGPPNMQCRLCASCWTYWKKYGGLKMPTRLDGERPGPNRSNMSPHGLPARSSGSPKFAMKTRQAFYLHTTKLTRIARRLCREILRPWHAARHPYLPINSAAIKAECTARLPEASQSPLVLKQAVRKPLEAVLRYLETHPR
T7 sequence (Q09028 whole entry partner, species assumed): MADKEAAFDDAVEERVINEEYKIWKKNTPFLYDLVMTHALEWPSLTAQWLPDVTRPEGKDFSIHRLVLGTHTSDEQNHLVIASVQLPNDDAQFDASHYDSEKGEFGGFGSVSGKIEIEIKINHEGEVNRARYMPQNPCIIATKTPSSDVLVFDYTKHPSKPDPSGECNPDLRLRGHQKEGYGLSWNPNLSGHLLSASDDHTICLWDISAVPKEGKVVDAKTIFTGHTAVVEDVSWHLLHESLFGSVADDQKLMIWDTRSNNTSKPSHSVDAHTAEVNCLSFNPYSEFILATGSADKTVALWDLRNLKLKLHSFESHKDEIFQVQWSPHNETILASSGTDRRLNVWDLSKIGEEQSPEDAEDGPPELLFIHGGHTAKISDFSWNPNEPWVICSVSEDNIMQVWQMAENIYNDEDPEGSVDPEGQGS
T4 sequence (Q13547 whole entry): as the sequence (Q13547 whole entry, species assumed) above
T4 sequence (Q8N108 whole entry partner): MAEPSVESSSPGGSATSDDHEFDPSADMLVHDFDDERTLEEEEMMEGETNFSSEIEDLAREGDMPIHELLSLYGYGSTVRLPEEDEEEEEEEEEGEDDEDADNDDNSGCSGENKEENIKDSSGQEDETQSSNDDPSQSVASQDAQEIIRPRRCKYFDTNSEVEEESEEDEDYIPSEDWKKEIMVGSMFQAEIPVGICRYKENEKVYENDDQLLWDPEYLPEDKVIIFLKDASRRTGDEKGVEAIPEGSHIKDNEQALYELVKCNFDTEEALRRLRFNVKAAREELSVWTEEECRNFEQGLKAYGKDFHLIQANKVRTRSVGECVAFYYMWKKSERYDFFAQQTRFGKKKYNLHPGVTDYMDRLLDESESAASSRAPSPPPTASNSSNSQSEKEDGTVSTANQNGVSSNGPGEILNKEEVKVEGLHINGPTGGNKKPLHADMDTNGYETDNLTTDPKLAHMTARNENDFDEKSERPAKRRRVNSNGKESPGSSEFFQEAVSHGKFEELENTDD
T1 sequence (Q13547 whole entry): as the sequence (Q13547 whole entry, species assumed) above
T1 sequence (Q6PJG2 628-887 partner limits assumed): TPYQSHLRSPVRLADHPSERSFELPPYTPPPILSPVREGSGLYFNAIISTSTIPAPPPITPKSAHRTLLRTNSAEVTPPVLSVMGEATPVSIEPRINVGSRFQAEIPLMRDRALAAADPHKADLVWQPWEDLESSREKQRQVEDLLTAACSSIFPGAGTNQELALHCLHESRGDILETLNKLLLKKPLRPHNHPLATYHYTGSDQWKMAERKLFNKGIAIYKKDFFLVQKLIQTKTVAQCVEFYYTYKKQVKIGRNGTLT
T1 sequence (Q9H147 whole entry partner): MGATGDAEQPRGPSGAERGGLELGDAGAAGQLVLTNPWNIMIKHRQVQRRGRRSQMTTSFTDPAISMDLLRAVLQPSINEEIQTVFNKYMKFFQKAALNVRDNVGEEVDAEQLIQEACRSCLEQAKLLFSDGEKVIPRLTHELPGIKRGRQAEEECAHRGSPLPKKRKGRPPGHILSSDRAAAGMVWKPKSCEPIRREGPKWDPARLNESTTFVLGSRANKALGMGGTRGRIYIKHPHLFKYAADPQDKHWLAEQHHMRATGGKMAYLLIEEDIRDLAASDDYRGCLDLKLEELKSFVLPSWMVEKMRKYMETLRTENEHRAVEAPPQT
T6 sequence (Q13547 whole entry, species assumed): as the sequence (Q13547 whole entry, species assumed) above
T6 sequence (Q13330 162-546 partner limits assumed, species assumed): as the sequence (Q13330 162-546 partner limits assumed, species assumed) above
T6 sequence (Q09028 whole entry partner, species assumed): as the sequence (Q09028 whole entry partner, species assumed) above

IC50 [1] [nM]	IC50 [2] [nM]	IC50 [3] [nM]	IC50 [4] [nM]	IC50 [5] [nM]	Kd [6] [nM]	IC50 ([7]; HDAC complexes tables, read-out: IC50, HMR (NuRD)) [nM]	IC50 [7, 9] [nM]	IC50 ([7]; inhibitor library experiment, 20 min preincubation rt, fluorescence, read-out: IC50 of HMR against histone peptide library) [nM]	IC50 [8] [nM]	SMILES
151	145	209	106	128	60	50	133	134	–	CC(=O)N[C@@H](CCCCN)C(=O)N[C@@H](C)C(=O)N[C@@H](C)C(=O)N[C@@H](CCCNC(=N)N)C(=O)N[C@@H](CCCCCC(=O)NO)C(=O)N[C@@H](CO)C(=O)N[C@@H](C)C(N)=O [compound 12, H3(23–29)K27Hd] (HELM PEPTIDE1{[ac].K.A.A.R.[O=C([C@H](CCCCCC(=O)[*:3])N[*:1])[*:2]].S.A.[am]}|CHEM1{[ON[*:1]]}$PEPTIDE1,CHEM1,6:R3-1:R1$$$V2.0)
480	272	408	342	379	–	–	308	–	234	CC(=O)N[C@@H](CCCCN)C(=O)N[C@@H](C)C(=O)N[C@@H](C)C(=O)N[C@@H](CCCNC(=N)N)C(=O)N[C@@H](CCCCCC(=O)NO)C(=O)N[C@@H](C)C(=O)N[C@@H](C)C(N)=O [compound 23, H3 (23-29) K27Hd S28A] (HELM PEPTIDE1{[ac].K.A.A.R.[O=C([C@H](CCCCCC(=O)[*:3])N[*:1])[*:2]].A.A.[am]}|CHEM1{[ON[*:1]]}$PEPTIDE1,CHEM1,6:R3-1:R1$$$V2.0)
–	–	–	–	–	288	–	–	–	–	CC(=O)N[C@@H](CCCCN)C(=O)NCC(=O)N[C@@H](CC(C)C)C(=O)NCC(=O)N[C@@H](CCCCCC(=O)NO)C(=O)NCC(=O)NCC(N)=O [compound 27, H4(8–14)K12Hd] (HELM PEPTIDE1{[ac].K.G.L.G.[O=C([C@H](CCCCCC(=O)[*:3])N[*:1])[*:2]].G.G.[am]}|CHEM1{[ON[*:1]]}$PEPTIDE1,CHEM1,6:R3-1:R1$$$V2.0)
